Data: the NIST ThermoML archive (doi:10.1016/j.jct.2012.11.032)

Test: xn = mol fraction of the nth substance listed
Settings: 101 kPa, Liquid; for mass density: Vibrating tube method; for speed of sound: Sing-around technique in a fixed-path interferometer

CCCCCCCC[n+]1ccn(C)c1.[Cl-] [1-methyl-3-octylimidazolium chloride] + O
Settings | mass density, 298 K [kg/m3] | mass density, 303 K [kg/m3] | mass density, 308 K [kg/m3] | mass density, 313 K [kg/m3] | speed of sound, 303 K [m/s] | speed of sound, 308 K [m/s] | speed of sound, 313 K [m/s]
x1 = 0.000276 | 997.161 | 995.767 | 994.15 | 992.324 | 1511.7 | 1522.2 | 1531.1
x1 = 0.000495 | 997.221 | 995.808 | 994.182 | 992.347 | 1513.5 | 1523.8 | 1532.6
x1 = 0.000781 | 997.313 | 995.896 | 994.262 | 992.417 | 1515.8 | 1526 | 1534.6
x1 = 0.00102 | 997.386 | 995.954 | 994.297 | 992.447 | 1517.8 | 1527.8 | 1536.2
x1 = 0.0013 | 997.479 | 996.029 | 994.364 | 992.496 | 1520 | 1529.8 | 1538.1
x1 = 0.001503 | 997.527 | 996.067 | 994.399 | 992.524 | 1521.6 | 1531.3 | 1539.5
x1 = 0.001892 | 997.639 | 996.169 | 994.479 | 992.591 | 1524.7 | 1534.1 | 1542
x1 = 0.002073 | 997.696 | 996.211 | 994.514 | 992.619 | 1526.1 | 1535.4 | 1543.2
x1 = 0.002376 | 997.786 | 996.287 | 994.575 | 992.664 | 1528.3 | 1537.4 | 1545
x1 = 0.00261 | 997.846 | 996.341 | 994.623 | 992.706 | 1530.2 | 1539.1 | 1546.6
x1 = 0.002774 | 997.889 | 996.377 | 994.653 | 992.728 | 1531.2 | 1540.1 | 1547.5
x1 = 0.003111 | 997.987 | 996.455 | 994.711 | 992.774 | 1533.7 | 1542.3 | 1549.5
x1 = 0.003716 | 998.157 | 996.597 | 994.828 | 992.866 | 1537.7 | 1545.9 | 1552.7
x1 = 0.003899 | 998.198 | 996.633 | 994.859 | 992.89 | 1538.8 | 1546.9 | 1553.7
x1 = 0.004079 | 998.254 | 996.675 | 994.891 | 992.912 | 1540 | 1548 | 1554.6
x1 = 0.004181 | 998.28 | 996.696 | 994.908 | 992.929 | 1540.7 | 1548.6 | 1555.1
x1 = 0.004462 | 998.349 | 996.755 | 994.953 | 992.963 | 1542.4 | 1550.1 | 1556.5
x1 = 0.004601 | 998.382 | 996.78 | 994.974 | 992.978 | 1543.2 | 1550.8 | 1557.1
x1 = 0.004981 | 998.469 | 996.85 | 995.028 | 993.015 | 1545.2 | 1552.6 | 1558.7
x1 = 0.005198 | 998.52 | 996.89 | 995.061 | 993.04 | 1546.2 | 1553.5 | 1559.5
x1 = 0.005607 | 998.619 | 996.962 | 995.112 | 993.076 | 1548.2 | 1555.3 | 1561
x1 = 0.005782 | 998.649 | 996.986 | 995.128 | 993.084 | 1549 | 1555.9 | 1561.6
